The structures appear in SMILES notation.

The target of this assay is T1, Slc26a7 (Mus musculus, UniProt Q8R2Z3).
T1 construct: native full-length channel in Reissner's membrane epithelial cells (basolateral membrane); Slc26a7 knockout mice as control
T1 sequence (Q8R2Z3 1-656): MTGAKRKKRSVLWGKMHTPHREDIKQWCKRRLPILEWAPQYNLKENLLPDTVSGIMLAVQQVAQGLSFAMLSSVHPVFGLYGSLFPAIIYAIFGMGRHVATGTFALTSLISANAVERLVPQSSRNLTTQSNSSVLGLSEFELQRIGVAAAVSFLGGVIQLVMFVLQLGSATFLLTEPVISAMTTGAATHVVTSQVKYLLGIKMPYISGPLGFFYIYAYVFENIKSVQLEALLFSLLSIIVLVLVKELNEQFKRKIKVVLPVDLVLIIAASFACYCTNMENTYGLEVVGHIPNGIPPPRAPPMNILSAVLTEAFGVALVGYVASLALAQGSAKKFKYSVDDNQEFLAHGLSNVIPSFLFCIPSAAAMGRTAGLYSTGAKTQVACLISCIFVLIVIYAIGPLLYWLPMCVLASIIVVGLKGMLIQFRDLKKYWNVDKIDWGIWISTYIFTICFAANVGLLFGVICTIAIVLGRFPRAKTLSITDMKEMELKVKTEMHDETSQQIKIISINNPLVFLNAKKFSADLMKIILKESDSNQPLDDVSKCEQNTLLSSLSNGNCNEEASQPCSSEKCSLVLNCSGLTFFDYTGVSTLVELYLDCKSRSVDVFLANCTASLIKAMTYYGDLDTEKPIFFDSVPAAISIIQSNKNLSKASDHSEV
Briefly: whole-cell patch clamp, wild-type versus Slc26a7 knockout native epithelial cells. The assay is classed as cell-based. Conditions: NMDG-Cl pipette, NO3-rich versus Cl-rich bath, +80 mV, pH 7.3, 37 °C; native cells with other anion channels present. Background: Patch clamp records ionic current or voltage across a cell membrane.

On to `O=[N+]([O-])O` [NO3 ^−], for which the “whole-cell patch clamp, wild-type versus Slc26a7 knockout native epithelial cell” value is on record as “elevated NO3 ^− current in wild-type cells being mediated by the Slc26a7 Cl^− channel”.

Values taken from publication PMC4014619, “Slc26a7 Chloride Channel Activity and Localization in Mouse Reissner’s Membrane Epithelium” (PLoS ONE, 2014).
